Data from US20240002424A1, “HEXOSAMINE COMPOUNDS AND METHODS THEREOF” (National Institute of Immunology, priority 2021, published 2024).

Tests used:
[1] = tested on: HL-60 cells; test: NeuAz expression by SPAAC with DBCO-Cy5 and flow cytometry, competition with 1c; assay type: cell-based, human; settings: 50 μM with 1c 50 μM, 24 h
Method: Estimation of NeuAz expression by 1c in the presence of peracetylated ManNAc analogues: Jurkat cells (3.0×10^5 cells/mL in 3.0 mL per well in 6-well plates) were incubated with (i) D, (ii) 1a, 1b, 1c, or 1d alone (50 mM) or (iii) 1a, 1b, or 1d (50 mM) in combination with 1c (50 mM). After 24 h, cells were harvested, washed using FSB, aliquoted to 5.0×10^5 cells per sample, and processed as mentioned above for estimation of NeuAz expression using DBCO-Cy5 ([…]). Experiments using HL-60 cells were performed using the same procedure.
Having confirmed metabolic acceptability in Jurkat cells, the compounds were tested on HL-60 (human acute myeloid leukemia) cells which are a reliable model for neutrophil adhesion. The effect on competitive suppression of NeuAz expression was studied using 1c as a reporter. HL-60 cells were treated with 1c either alone (50 μM) or in combination with ManNAc analogues (50 μM), including the straight chain derivatives, for 24 h followed by DBCO-Cy5 ligation. […] The decreasing ability of linear alkyl moieties (1d-1g), as a function of chain length, for suppression of NeuAz expression is in contrast to the cycloalkyl moieties. […] Similarly, 1a induced a reduction of 40% compared to only a 15% reduction by 1f.

[2] = tested on: HL-60 cells; test: Total and glycoside bound sialic acids by periodate-resorcinol assay; assay type: cell-based, human; settings: 100 μM, 48 h
Method: Total sialic acids were measured following reported procedures. HL-60 cells (3.0×10^5 cells/mL in 10 mL complete medium in 10 cm diameter Petri dishes) were incubated with D, 1a, 1b, 1c, 1d, 1e, 1f, 1g, 2a, or 2b (100 mM each), along with untreated (U) controls. After 48 h, cells were harvested, washed with PBS (3×5.0 mL; 3000×g, for 2.0 min), aliquoted to 2×10^6 cells per sample and resuspended in PBS (150 mL) in 1.5 mL microcentrifuge tubes. Cells were lyzed by three freeze-thaw cycles and the total lysates were subjected to periodate-resorcinol assay. Briefly, lysates (150 mL) were treated with 0.4 M aqueous periodic acid (6.67 mM) or (2.5 mL) and incubated either on ice for 15 min (for measurement of total sialic acids) or at 37° C. for 1.0 h (for measurement of glycoconjugate bound sialic acids). About 10 mL of reagent cocktail was prepared using 6% w/v of aqueous resorcinol (1.0 mL), 2.5 mM copper (II) sulfate (1.0 mL), 44% of concentrated hydrochloric acid (4.4 mL), and water (3.6 mL). The mixture was then treated with the reagent cocktail (250 mL per sample), boiled at 100° C. for 10 min, rapidly quenched in an ice-bath and treated with tert-butanol (250 mL). The contents were centrifuged and the supernatants were aliquoted (200 mL) into 96-well plates and the absorbance at 630 nm was measured. At least three replicates were prepared for each condition.

[3] = tested on: HL-60 cells; test: Cell surface sialyl-Lewis-X (CD15s) by anti-CD15s (CSLEX1) flow cytometry; assay type: cell-based, human; settings: 50 μM, 24 h
Method: Effect of ManNAc analogues on the expression of sialyl-Lewis-X and Lewis-X: HL-60 cells (3.0×10^5 cells/mL in 2.0 mL complete medium in 6 well plate) were treated with D (vehicle), 1a, 1b, 1c, 1d, 1e, 1f, or 1g (50 PM), along with untreated (U) control. After 24 h, cells were harvested and washed with PBS (3×0.5 mL, 3000×g, 3.0 min at room temperature). Prior to last wash, cells were counted using Z2 coulter counter and aliquoted at 2.5×10^5 cells per sample and stained with either mouse anti-human CD15s (CSLEX1) (1.25 μg/mL) or mouse anti-human CD15 (HI98) (2.5 μg/mL) in HEPES/CaCl2) buffer (30 mM HEPES, 110 mM NaCl, 10 mM KCl, 2 mM MgCl2, 10 mM glucose, 1.5 mM CaCl2) containing 0.1% bovine serum albumin, pH 7.3) (total volume of 100 μL) for 30 min at 4° C. Cells were washed with HEPES/CaCl2 buffer (2×0.5 mL) and stained with AlexaFluor488-conjugated anti-mouse IgM (2.5 μg/mL) (for both CD15s and CD15) in 100 μL HEPES/CaCl2 for 30 min at 4° C. Cells were washed with HEPES/CaCl2 buffer (2×0.5 mL), resuspended in PBS (0.2 mL), treated with PI (2.5 μg/ml) and analysed by BD FACSVerse. Samples treated with (i) isotype antibodies followed by secondary antibody and (ii) secondary antibody alone were prepared as controls. Single Cells were gated for PI-negative population for 10,000 events and analysed by flow cytometry. Two replicate samples were prepared for each condition and each sample was counted twice. Three independent experiments were performed. Data was analysed using FlowJo V10. For plotting graph and calculation of significant probability ‘p’ values, two-way ANOVA with Dunnett's multiple comparison tests was employed in GraphPad Prism 8.
Time course of CD15s expression: HL-60 cells (3.0×10^5 cells/mL in 2.5 mL complete medium in 6-well plates) were incubated with D, 1a, 1b, or 1d (50 mM). At each time point, from day 1 to day 6, the cells were harvested from the entire contents of the well, washed, and aliquoted to 5.0×10^5 cells per sample, and immuno-stained using anti-CD15s (CSLEX1) antibody as mentioned above. On day 3, 4, and 5 complete media (1.0 mL) was added to each remaining well in order to compensate for media exhaustion. No contents were removed from the well during the period.

[4] = tested on: HL-60 cells; test: Western blot of total lysates for sLeX (CSLEX1) epitopes; assay type: cell-based, human; settings: HL-60 total lysates; 50 μM, 72 h
Method: Effect of ManNAc analogues on expression of CD15s epitopes: HL-60 cells (3.0×10^5 cells/mL in 10 mL complete medium in 10 cm diameter petri dishes) were incubated with D, 1a, 1b, 1d, 1e, 1f, or 1g (50 mM), along with untreated (U) controls. After 72 h, cells were harvested, washed with PBS (3×5.0 mL), and lysed in RIPA buffer (10^7 cells in […]), containing protease inhibitor cocktail (PIC, 1:100). Protein concentration of the soluble fraction was estimated using the Bradford assay. Proteins from total lysates were resolved by 7.5% SDS-PAGE and blotted onto nitrocellulose membrane (constant current of 250 mA for 3.0 h at 4° C.). Membranes were blocked using non-fat milk (NFM) (5.0% w/v) in PBS and incubated with primary antibodies (5.0 mL PBS containing 5.0% NFM) overnight at 4° C. Membranes were washed with 0.1% PBS-T (0.1% v/v tween-20 in PBS; 3×5.0 mL, five min each at room temperature) followed by incubation with appropriate fluorophore or horse radish peroxidase (HRP) conjugated secondary antibodies for 1.0 h at room temperature. Membranes were washed with 0.1% PBS-T (3×5.0 mL, five min each) and then either directly scanned using Amersham Typhoon fluorescence scanner or developed on photographic films after treatment with enhanced chemiluminescence reagents. At least two independent replicate experiments were performed for all the blots.
The primary and secondary antibodies employed, along with dilution and stock concentration, are given below: Primary antibodies: Anti-CD15s (CSLEX1; IgM, dilution 1:5000; stock concentration 0.5 mg/mL) Anti-CLA (HECA452; IgM, dilution 1:1000, stock concentration 0.5 mg/mL) […] (AC15, IgG, dilution 1:20000, stock concentration 2.2 mg/mL); and Secondary Antibodies: AlexaFluor488-conjugated anti-mouse IgM (1:10000, stock concentration 2.0 mg/mL) AlexaFluor488-conjugated anti-rat IgM (1:10000, stock concentration 0.5 mg/mL) HRP-conjugated anti-mouse IgG (1:10000, stock concentration 0.8 mg/mL) Cy5-conjugated donkey anti-mouse IgG (1:10000, stock concentration 1.4 mg/mL) AlexaFluorplus488-conjugated anti-mouse IgG (1:10000, stock conc. 2.0 mg/mL).

[5] = tested on: neural cell adhesion molecules (NCAM); settings: cited from earlier work
[6] = tested on: HL-60 cells; test: Cell density as a measure of proliferation/cytotoxicity; assay type: cell-based, human; settings: 100 μM, cell density measured at 24, 48, and 72 h
[7] = tested on: HL-60 cells; test: Cell surface sialyl-Lewis-X (CD15s) by anti-CD15s (CSLEX1) flow cytometry; assay type: cell-based, human; settings: single dosage 50 μM
[8] = tested on: HL-60 cells; settings: 10 mM; cited from earlier work

Row | SMILES | NeuAz expression with respect to 1c alone (100%) [1] [%] | reduction of NeuAz expression with respect to controls [1] [%] | suppression of NeuAz expression (in words) [1] | glycoside bound sialic acid levels (in words) [2] | increase in binding of CSLEX1 antibody (sLeX), in words [3] | sLeX (CSLEX1) bands between 150-100 kDa in western blot [4] | inhibition of polysialic acid attachment to NCAM [5] | decrease in total sialic acid levels [2] [fold] | ratio of total sialic acids to glycoside bound sialic acids vs untreated cells [2] | decrease in cell density [6] [%] | increase in binding of CSLEX1 antibody (sLeX) compared to controls [3] [fold] | maximum increase in sLeX levels on day 2 ([7]; day 2) [fold] | sLeX levels by day 6 (in words) ([7]; day 6) | day of peak sLeX expression ([7]; time course day 1 to day 6) [days] | expression of sLeX epitopes (KM93 antibody), particularly on PSGL-1/CD162 [8]
1 | CCCC(=O)N[C@@H]1[C@@H](OC(C)=O)O[C@H](COC(C)=O)[C@@H](OC(C)=O)[C@@H]1OC(C)=O [Compound 1f, 1,3,4,6-tetra-O-acetyl-2-(1-butanoyl)amino-2-deoxy-α-D-mannopyranose] | 85 | 15 | moderate suppression | comparable to untreated cells | three-fold increase | moderate increase | efficient inhibitor |  |  |  |  |  |  |  | 
2 | CCCCC(=O)N[C@@H]1C(OC(C)=O)O[C@H](COC(C)=O)[C@@H](OC(C)=O)[C@@H]1OC(C)=O (stereo partly drawn) [Compound 1g, 1,3,4,6-tetra-O-acetyl-2-(1-pentanoyl)amino-2-deoxy-D-mannopyranose] | 90 | 10 | mild effect |  |  | moderate increase |  | 0.7 | lower ratios | ~10 | ~2.5 | 2.2 | returned to normal levels | 2 | 
3 | CCC(=O)N[C@@H]1C(O)O[C@H](CO)[C@@H](O)[C@@H]1O (stereo partly shown) [ManNProp] |  |  |  |  |  |  |  |  |  |  |  |  |  |  | enhanced expression of sLeX epitopes
